Results as given in PubChem BioAssay (NCI).
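Protocol summary: plate cells (96-well), add compound at 5 concentrations, incubate 48 h, interpolate endpoints linearly. At the TGI there is no net growth.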

How the values were obtained:
Assay in all cases: NCI-60 cell line screen, 48 h
NCI-H460 lung = tested on: NCI-H460 lung
MDA-MB-435 = tested on: MDA-MB-435
BT-549 breast = tested on: BT-549 breast
HT29 colon = tested on: HT29 colon
LOX IMVI melanoma = tested on: LOX IMVI melanoma
RPMI-8226 leukemia = tested on: RPMI-8226 leukemia
KM12 colon = tested on: KM12 colon
M14 melanoma = tested on: M14 melanoma
MDA-N = tested on: MDA-N
OVCAR-8 ovarian = tested on: OVCAR-8 ovarian
SF-295 CNS = tested on: SF-295 CNS
SNB-75 CNS = tested on: SNB-75 CNS
HOP-92 NSCLC = tested on: HOP-92 NSCLC
TK-10 renal = tested on: TK-10 renal
NCI-H23 lung = tested on: NCI-H23 lung
HS 578T breast = tested on: HS 578T breast
SF-539 CNS = tested on: SF-539 CNS
SNB-19 CNS = tested on: SNB-19 CNS
SN12C renal = tested on: SN12C renal
RXF 393 renal = tested on: RXF 393 renal
SK-OV-3 ovarian = tested on: SK-OV-3 ovarian
HOP-62 NSCLC = tested on: HOP-62 NSCLC
T-47D breast = tested on: T-47D breast
CCRF-CEM leukemia = tested on: CCRF-CEM leukemia
IGROV1 ovarian = tested on: IGROV1 ovarian
786-0 renal = tested on: 786-0 renal
NCI/ADR-RES ovarian = tested on: NCI/ADR-RES ovarian
UACC-62 melanoma = tested on: UACC-62 melanoma
NCI-H226 lung = tested on: NCI-H226 lung
MDA-MB-231 breast = tested on: MDA-MB-231 breast
OVCAR-3 ovarian = tested on: OVCAR-3 ovarian
OVCAR-5 ovarian = tested on: OVCAR-5 ovarian
SF-268 CNS = tested on: SF-268 CNS
HCT-116 colon = tested on: HCT-116 colon
MCF7 breast = tested on: MCF7 breast
HL-60(TB) leukemia = tested on: HL-60(TB) leukemia
HCC-2998 colon = tested on: HCC-2998 colon
OVCAR-4 ovarian = tested on: OVCAR-4 ovarian
DU-145 prostate = tested on: DU-145 prostate
A549 NSCLC = tested on: A549 NSCLC
K-562 leukemia = tested on: K-562 leukemia
UO-31 renal = tested on: UO-31 renal
COLO 205 colon = tested on: COLO 205 colon
NCI-H522 lung = tested on: NCI-H522 lung
PC-3 prostate = tested on: PC-3 prostate
SK-MEL-2 melanoma = tested on: SK-MEL-2 melanoma
UACC-257 melanoma = tested on: UACC-257 melanoma
CAKI-1 renal = tested on: CAKI-1 renal
ACHN renal = tested on: ACHN renal
MOLT-4 leukemia = tested on: MOLT-4 leukemia
SK-MEL-5 melanoma = tested on: SK-MEL-5 melanoma
EKVX NSCLC = tested on: EKVX NSCLC
SW-620 colon = tested on: SW-620 colon
U251 CNS = tested on: U251 CNS
HCT-15 colon = tested on: HCT-15 colon

Measured: TGI

CCCCCCCCNC(=O)C1=C(C)NC(C)=C(C(=O)NCCCCCCCC)C1
> 100 µM: all assays above
